Measurements published in paper PMC11091117, “A fluorescently-tagged tick kinin neuropeptide triggers peristalsis and labels tick midgut muscles” (Scientific Reports, 2024).
“Also recorded” adds a separate entry of the source.

What was measured:
[1] = tested on: vector-only (V/O) CHO-K1 cells; assay: Confocal visualization on live vector-only cells with fluorescently labeled kinin peptide; format: binding; conditions: 10 µM labeled peptide, 1 min, HBSS, confocal Leica SP8
Excerpt: (§1) Three peptides were used in this study. These included: 1) the ligand for the endogenous tick kinin receptor from Rhipicephalus sanguineus, Rhisa-kinin 8 peptide of sequence GTGEDQAFSPWGamide (Rhisa-K-8; RK8; of identical sequence to Rhimi-K-8 in Rhipicephalus microplus)[48], 2) the same peptide but fluorescently labeled at the N-terminus with tetramethylrhodamine (TMR) a red fluorescent dye, designated TMR-Rhisa-K-8 (TMR-RK8), and 3) a labeled peptide synthesized with the scrambled sequence of the kinin ligand, designated TMR-Scrambled. The sequence of TMR-RK8 was TMR-C-GTGEDQAFSPWGamide). The TMR-Scrambled kinin (TMR-C-GTQWGPGFEADSamide) served as a negative control for tissue labeling. […]
The BMLK3 and V/O cells (5000–10,000 cells) were seeded separately in 200 µL selective media onto the two chambers of the cover glass (Lab-Tek Chambered Coverglass, 4.2 cm^2 area, #1.0 German borosilicate glass, sterile, Cat # 155,380, Thermo Fisher Scientific Inc., Walthams, MA) and grown in the incubator overnight at 37 °C and 5% CO2. The next day, cells would be ready for fluorescent labeling: the selective media was replaced with 200 µL HBSS to rinse the cells. […] Images were analyzed and computer-colored using Fiji/ImageJ (National Institutes of Health, Bethesda, MD). […]

[2] = tested on: vector-only (V/O) CHO-K1 cells; assay: Cellular end-point fluorescence calcium mobilization assay, vector-only control cells; format: cell-based; conditions: 10 µM peptide, Fluo-8, 29 °C, 60 s, 4 technical replicates
Excerpt: as §1
(§2) A fluorescence-based intracellular calcium mobilization end-point assay described by Xiong, et al.[50] was used to confirm the activity of the TMR-labeled RK8 peptide on a cell line expressing the tick kinin receptor. […] The calcium fluorescence signal was detected by a CLARIOstar (BMG LABTECH, Chicago, IL, United States) plate reader set to read at the fluorescence plate-mode with excitation and emission wavelengths of 490 and 525 nm at 29 °C. Calcium responses were read immediately after the addition of 10 µL of either TMR-RK8, unlabeled RK8, or blank solvent (1% DMSO in HBSS). […]

[3] = tested on: tick kinin receptor (recombinant R. microplus receptor, CHO-K1 BMLK3 cells); assay: Cellular end-point fluorescence calcium mobilization assay, BMLK3 cells; format: cell-based, Rhipicephalus microplus
Excerpt: Three peptides were used in this study. These included: 1) the ligand for the endogenous tick kinin receptor from Rhipicephalus sanguineus, Rhisa-kinin 8 peptide of sequence GTGEDQAFSPWGamide (Rhisa-K-8; RK8; of identical sequence to Rhimi-K-8 in Rhipicephalus microplus)[48], 2) the same peptide but fluorescently labeled at the N-terminus with tetramethylrhodamine (TMR) a red fluorescent dye, designated TMR-Rhisa-K-8 (TMR-RK8), and 3) a labeled peptide synthesized with the scrambled sequence of the kinin ligand, designated TMR-Scrambled. The sequence of TMR-RK8 was TMR-C-GTGEDQAFSPWGamide). The TMR-Scrambled kinin (TMR-C-GTQWGPGFEADSamide) served as a negative control for tissue labeling. All peptides were custom-synthesized and purchased from GenScript (Piscataway, NJ, USA) with a purity of ≥ 95% and the cysteine in bold in both sequences was added to attach the label. Experiments were replicated with independently synthesized batches (4 mg each) of labeled and unlabeled peptides, for reproducibility. Unlabeled RK8 was used as a competitive ligand to verify target-specific binding of the labeled TMR-RK8 (see Ligand Competition Assay). For cell assays, the peptide stock solutions (100 µM) were made in 1% dimethyl sulfoxide (DMSO) in Hank’s balanced salt solution (HBSS, Thermo Fisher, Waltham, USA). For fluorescent cell labeling, peptide working solutions (10 µM) were prepared in HBSS from stock solutions. For assays on the midgut, peptides were solubilized and diluted in a tick physiological saline consisting of 140 mM NaCl, 5 mM KCl, 1 mM MgCl2, 5 mM CaCl2, 4 mM NaHCO3, and 5 mM HEPES, pH 7.2[49].
The tick kinin receptor is stably expressed in the recombinant CHO-K1 cell line designated BMLK3 (Boophilus microplus leucokinin receptor 3) that was constructed and selected as described by Holmes, et al.[47]. The CHO-K1 cells had been obtained from the American Type Culture Collection (ATCC) for transfection with the expression construct. This cell line has been kept in the laboratory since 2003. Cells that were transfected only with an empty plasmid are referred to as “vector-only” (V/O) cells and were used as a negative control. Before all experiments, the BMLK3 cell line or V/O cells were separately cultured in T-75 flasks with selective medium (F-12 K medium containing 10% FBS and 800 μgmL^−1 of G418 sulfate) for one to two passages in a humidified incubator at 37 °C and 5% CO2.
as §2, with “receptor. For this, BMLK3 and V/O cells were cultured in F-12 K medium (1% FBS and 400 μgmL^−1- of G418 Sulfate). The cells were seeded in a 96-well plate with 20,000 cells per well and incubated overnight at 37 °C and 5% CO2. The next morning, cells were prepared for the assay following the manufacturer’s instructions for the Fluo-8 Calcium Flux Assay Kit – NoWash (Abcam, Cambridge, United Kingdom). The F-12 K medium in the plate was removed by inverting the plate and gently blotting on paper towels.” for “receptor.”

## TMR-C-GTGEDQAFSPWGamide [TMR-RK8]
[1]
  labeling of vector-only cells (in words): not labeled by either peptide
[2]
  calcium fluorescence response of vector-only cells (in words): invariable background fluorescence
[3]; 10 nM to 10 μM (four concentrations), 1% DMSO in HBSS, Fluo-8, Ex 490/Em 525 nm, 29 °C, read 60 s at 1 s intervals, average raw fluorescence units of 4 technical replicates, simple linear regression
  intracellular calcium fluorescence response / receptor activation (in words): activated and labeled the recombinant R. microplus receptor expressed in CHO-K1 cells; also recorded: elicited a dose-dependent intracellular calcium fluorescence response; also recorded: functionally activates the tick recombinant kinin receptor in BMLK3 cells; also recorded: activated the receptor in a dose response fashion, similarly to the unlabeled RK8 peptide
[3]; highest concentration assayed 10 µM, Fluo-8, 4 technical replicates
  fluorescence units at highest concentration, TMR-RK8 compared with RK8 (in words): maximal and similar for the highest concentration assayed of 10 µM
[3]; overlap of confidence intervals of cell responses to TMR-RK8 and RK8
  effect of TMR label on peptide bioactivity (in words): the TMR fluorescent label did not impair peptide bioactivity
